Experimental findings from PMC10454409, “Hybrids of Sterically Hindered Phenols and Diaryl Ureas: Synthesis, Switch from Antioxidant Activity to ROS Generation and Induction of Apoptosis” (International Journal of Molecular Sciences, 2023) are described below.

Where two headings read alike, the source gives them in different places. Where only a bound is given, the exact number is not on record here.

Holding throughout (format): cell-based
Assay [1] has as its system M-HeLa cells (human cervix epithelioid carcinoma). The assay is described as follows: MTT cytotoxicity test, M-HeLa. To be noted: for IC50: Homo sapiens, M-HeLa, MTT test, 24 h incubation per text, 48 h per method. An excerpt:
(§1) For the experiments, we used tumor cell cultures M-HeLa clone 11 (epithelioid carcinoma of the cervix, subline HeLa., clone M-HeLa), HuTu 80 (human duodenal adenocarcinoma) and MCF7 (human breast adenocarcinoma (pleural fluid)) from the collection of the Institute of Cytology, Russian Academy of Sciences (St. Petersburg); human liver cells (Chang liver) from the collection of the Research Institute of Virology at the Russian Academy of Medical Sciences (Moscow); and SH-SY5Y (neuroblastoma)from the Laboratory of Tumor Cell Genetics at the Scientific Research Institute of Carcinogenesis N.N. Blokhin National Medical Research Center of Oncology.
(§2) The cytotoxic effect on cells was determined using the colorimetric method of cell proliferation—the MTT test. NADP-H-dependent cellular oxidoreductase enzymes can, under certain conditions, reflect the number of viable cells. These enzymes are able to reduce the tetrazolium dye (MTT)-3-(4,5-dimethylthiazol-2-yl)-2,5-diphenyl-tetrazolium bromide to insoluble blue-violet formazan, which crystallizes inside the cell. The amount of formazan formed is proportional to the number of cells with active metabolism.
(§3) Cells were seeded on a 96-well Nunc plate at a concentration of 5 × 10^3 cells per well in a volume of 100 μL of medium and cultured in a CO2 incubator at 37 °C until a monolayer was formed. […] After 48 h, the nutrient medium was removed from the plates and 100 µL of the nutrient medium without serum with MTT at a concentration of 0.5 mg/mL was added and incubated for 4 h at 37 °C. Formazan crystals were […] 100 µL of DMSO in each well. Optical density was recorded at 540 nm on an in vitro logic microplate reader (Russia). The experiments for all compounds were repeated in triplicate.
(§4) IC50 values were estimated using the Quest Graph IC50 Calculator (AAT Bioquest, Inc., Sunnyvale, CA, USA) (Version 2022) (accessed on 25 June 2022).
(Tetrazolium assays rely on reduction of a dye to a coloured formazan, in cell work by metabolically active cells.)

Assay [2] relates to MCF-7 cells (human breast adenocarcinoma). The assay is described as follows: MTT cytotoxicity test, MCF-7. To be noted: for IC50: Homo sapiens, MCF7, MTT test, 24 h incubation per text, 48 h per method; for SI, selectivity index relative to Chang liver, MCF-7: MCF-7 vs Chang liver. Here is the method: as §2
Formazan crystals were added to 100 µL of DMSO in each well. Optical density was recorded at 540 nm on an in vitro logic microplate reader (Russia). The experiments for all compounds were repeated in triplicate.

Assay [3] deals with HuTu 80 cells (human duodenal adenocarcinoma). The assay is described as follows: MTT cytotoxicity test, HuTu 80. As to conditions: Homo sapiens.
From the text: as §1, §2, §3, §4

Assay [4] deals with SH-SY5Y cells (neuroblastoma). The assay is described as follows: MTT cytotoxicity test, SH-SY5Y. To be noted: for IC50: Homo sapiens, SH-SY5Y, MTT test, 24 h incubation per text, 48 h per method.
From the text: as §1, §2, §3, §4

The subject of assay [5] is Chang liver cells (human liver cells, normal cell line). Kind of assay: MTT cytotoxicity test, Chang liver normal cells. As to conditions: 48 h incubation.
From the text: as §1, §2, §3, §4

[6] abbreviates: HuTu80, read-out: IC50, HuTu 80.
Where [7] appears, read: HuTu80, MTT test, 24 h incubation per text, 48 h per method, read-out: IC50, HuTu 80.

As to `Cc1ccc(NC(=O)Nc2ccc(C(c3cc(C(C)(C)C)c(O)c(C(C)(C)C)c3)P(=O)(Oc3ccccc3)Oc3ccccc3)c(NC(=O)Nc3ccc(C)cc3)n2)cc1` (stereo not drawn) [9d], the IC50 is 78.9 ± 6.2 µM in assay [1]; 76.6 ± 6.2 µM in assay [2]; 50 ± 4 µM in assay [3] (setting [6]); more than 100 µM in assay [4]; more than 100 µM in assay [5].

As to `CCOP(=O)(OCC)C(c1cc(C(C)(C)C)c(O)c(C(C)(C)C)c1)c1ccc(NC(=O)Nc2cccc(C)c2)cc1NC(=O)Nc1cccc(C)c1` (stereo not drawn) [13b], the IC50 in assay [1] came out at 96.3 ± 7.5 µM; in assay [2], 57.7 ± 4.6 µM; in assay [3] (setting [6]), 40.1 ± 3.1 µM; in assay [4] it was 86.3 ± 4 µM; in assay [5], 68.2 ± 5.4 µM.

As for `COP(=O)(OC)C(c1cc(C(C)(C)C)c(O)c(C(C)(C)C)c1)c1ccc(NC(=O)Nc2cccc(C)c2)cc1NC(=O)Nc1cccc(C)c1` (stereo not drawn) [13a], the IC50 in assay [1] was 75 ± 6 µM; in assay [2], 77.4 ± 6.3 µM; in assay [3] (setting [6]) it was 75.1 ± 6.1 µM; in assay [4], more than 100 µM; in assay [5], 92 ± 7.2 µM.

For `CCOP(=O)(OCC)C(c1cc(C(C)(C)C)c(O)c(C(C)(C)C)c1)c1ccc(NC(=O)Nc2ccc(OC)cc2)nc1NC(=O)Nc1ccc(OC)cc1` (stereo not drawn) [10b], the IC50 in assay [1] was more than 100 µM; in assay [2] it was 82.1 ± 6.5 µM; in assay [3] (setting [6]) it was 45 ± 3.6 µM; in assay [4], more than 100 µM; in assay [5], 81.2 ± 6.4 µM.

Regarding `CNC(=O)c1cc(Oc2ccc(NC(=O)Nc3ccc(Cl)c(C(F)(F)F)c3)cc2)ccn1` [SF, sorafenib, reference compound], the IC50 came to 25 ± 1.9 µM in assay [1], 6.2 ± 0.5 µM in assay [3] (setting [7]) and 21.7 ± 1.7 µM in assay [5].

On to `CCOP(=O)(OCC)C(c1cc(C(C)(C)C)c(O)c(C(C)(C)C)c1)c1ccc(NC(=O)Nc2cccc(C)c2)nc1NC(=O)Nc1cccc(C)c1` (stereo not drawn) [8b], for which the IC50 was 62 ± 2.2 µM in assay [1]; 35.4 ± 2.8 µM in assay [2]; less than 15 µM in assay [3] (setting [6]); 8 ± 0.6 µM in assay [3] (setting [7]); 41 ± 0.3 µM in assay [4]; 13 ± 1.2 µM in assay [5].

As to `CC(C)OP(=O)(OC(C)C)C(c1cc(C(C)(C)C)c(O)c(C(C)(C)C)c1)c1ccc(N)nc1N` (stereo not drawn) [3c], the IC50 in assay [1] is 38 ± 2.8 µM; in assay [2], 21.8 ± 1.7 µM; in assay [3] (setting [7]), more than 100 µM; in assay [4], 30.4 ± 0.7 µM; in assay [5], 100 ± 2.7 µM. Also, the “SI, selectivity index relative to Chang liver, MCF-7” value in assay [2] is listed as approximately 5. Also, the “SI, selectivity index relative to Chang liver, SH-SY5Y” value in assay [4] (SH-SY5Y vs Chang liver) was approximately 3.

As for `CCOP(=O)(OCC)C(c1cc(C(C)(C)C)c(O)c(C(C)(C)C)c1)c1ccc(N)nc1N` (stereo not drawn) [3b], the IC50 is 17.1 ± 1.3 µM in assay [1]; 34.2 ± 3 µM in assay [2]; 86.6 ± 6.8 µM in assay [3] (setting [6]); 77 ± 1.9 µM in assay [4]; more than 100 µM in assay [5].

Regarding `CCOP(=O)(OCC)C(c1cc(C(C)(C)C)c(O)c(C(C)(C)C)c1)c1ccc(NC(=O)Nc2ccccc2)nc1NC(=O)Nc1ccccc1` (stereo not drawn) [5b], the IC50 in assay [1] is 62.5 ± 5.2 µM; in assay [2], 36.3 ± 2.8 µM; in assay [3] (setting [6]), 20 ± 1.7 µM; in assay [4], 17.9 ± 1.9 µM; in assay [5] it was 31.4 ± 2.4 µM.

Take `COP(=O)(OC)C(c1cc(C(C)(C)C)c(O)c(C(C)(C)C)c1)c1ccc(N)nc1N` (stereo not drawn) [3a]: the half-inhibitory concentration (IC50) in assay [1] was 16.1 ± 1.3 µM; in assay [2] it was 31 ± 2.6 µM; in assay [3] (setting [6]) it was more than 100 µM; in assay [4], more than 100 µM; in assay [5], more than 100 µM.

Turning to `COP(=O)(OC)C(c1cc(C(C)(C)C)c(O)c(C(C)(C)C)c1)c1ccc(NC(=O)Nc2ccc([N+](=O)[O-])cc2)cc1NC(=O)Nc1ccc([N+](=O)[O-])cc1` (stereo not drawn) [17a], the IC50 was 60 ± 4.7 µM in assay [1]; 73.6 ± 5.8 µM in assay [2]; 41 ± 3.1 µM in assay [3] (setting [6]); more than 100 µM in assay [4]; 86 ± 6.6 µM in assay [5].

For the compound `CCOP(=O)(OCC)C(c1cc(C(C)(C)C)c(O)c(C(C)(C)C)c1)c1ccc(NC(=O)Nc2ccc(Cl)cc2)cc1NC(=O)Nc1ccc(Cl)cc1` (stereo not drawn) [16b], the IC50 in assay [1] is 100 ± 8.6 µM; in assay [2], more than 100 µM; in assay [3] (setting [6]), 61 ± 4.8 µM; in assay [4] it was more than 100 µM; in assay [5] it was more than 100 µM.

As to `CCOP(=O)(OCC)C(c1cc(C(C)(C)C)c(O)c(C(C)(C)C)c1)c1ccc(NC(=O)Nc2ccc(OC)cc2)cc1NC(=O)Nc1ccc(OC)cc1` (stereo not drawn) [15b], the IC50 in assay [1] was more than 100 µM; in assay [2], 96.3 ± 7.6 µM; in assay [3] (setting [6]), 58.7 ± 4.6 µM; in assay [4] it was more than 100 µM; in assay [5] it was 96 ± 7.6 µM.

Take `CCOP(=O)(OCC)C(c1cc(C(C)(C)C)c(O)c(C(C)(C)C)c1)c1ccc(NC(=S)Nc2ccccc2)cc1NC(=S)Nc1ccccc1` (stereo not drawn) [19b]: the IC50 in assay [1], in assay [2], in assay [3] (setting [6]) and in assay [4] was more than 70 µM each time.

Turning to `CC(C)(C)c1cc(C(c2ccc(N)nc2N)P(=O)(Oc2ccccc2)Oc2ccccc2)cc(C(C)(C)C)c1O` (stereo not drawn) [3d], the IC50 in assay [1] worked out at 7.4 ± 0.7 µM; in assay [2], 16.4 ± 1.7 µM; in assay [3] (setting [6]) it was 63.2 ± 5.6 µM; in assay [4], 18.8 ± 0.2 µM; in assay [5], 52.3 ± 3.5 µM. The “SI, selectivity index relative to Chang liver, M-HeLa” value in assay [1] (M-HeLa vs Chang liver) is reported as approximately 7. In assay [2], the “SI, selectivity index relative to Chang liver, MCF-7” value was approximately 3.

Take `COP(=O)(OC)C(c1cc(C(C)(C)C)c(O)c(C(C)(C)C)c1)c1ccc(NC(=S)Nc2ccccc2)nc1N` (stereo not drawn) [18a]: the IC50 in assay [1], in assay [2], in assay [3] (setting [6]) and in assay [4] was more than 70 µM throughout.

For `COc1ccc(NC(=O)Nc2ccc(C(c3cc(C(C)(C)C)c(O)c(C(C)(C)C)c3)P(=O)(OC(C)C)OC(C)C)c(NC(=O)Nc3ccc(OC)cc3)n2)cc1` (stereo not drawn) [10c], the IC50 in assay [1], in assay [2], in assay [3] (setting [7]) and in assay [4] was more than 70 µM each time.

For `Cc1cccc(NC(=O)Nc2ccc(C(c3cc(C(C)(C)C)c(O)c(C(C)(C)C)c3)P(=O)(Oc3ccccc3)Oc3ccccc3)c(NC(=O)Nc3cccc(C)c3)n2)c1` (stereo not drawn) [8d], the IC50 in assay [1], in assay [2], in assay [3] (setting [6]) and in assay [4] was more than 70 µM throughout.

With `CC(C)OP(=O)(OC(C)C)C(c1cc(C(C)(C)C)c(O)c(C(C)(C)C)c1)c1ccc(NC(=O)Nc2ccc(Cl)cc2)nc1NC(=O)Nc1ccc(Cl)cc1` (stereo not drawn) [11c], the IC50 in assay [1], in assay [2], in assay [3] (setting [7]) and in assay [4] was more than 70 µM each time.

In the case of `CC(C)(C)c1cc(C(c2ccc(NC(=O)Nc3ccc(Cl)cc3)nc2NC(=O)Nc2ccc(Cl)cc2)P(=O)(Oc2ccccc2)Oc2ccccc2)cc(C(C)(C)C)c1O` (stereo not drawn) [11d], the IC50 in assay [1], in assay [2], in assay [3] (setting [6]) and in assay [4] was more than 70 µM in each case.

On to `CC(C)OP(=O)(OC(C)C)C(c1cc(C(C)(C)C)c(O)c(C(C)(C)C)c1)c1ccc(NC(=O)Nc2ccccc2)nc1NC(=O)Nc1ccccc1` (stereo not drawn) [5c], for which the IC50 in assay [1], in assay [2], in assay [3] (setting [7]) and in assay [4] was more than 70 µM throughout.

As to `COP(=O)(OC)C(c1cc(C(C)(C)C)c(O)c(C(C)(C)C)c1)c1ccc(NC(=O)Nc2ccc(C)cc2)cc1NC(=O)Nc1ccc(C)cc1` (stereo not drawn) [14a], the IC50 in assay [1], in assay [2], in assay [3] (setting [6]) and in assay [4] was more than 70 µM in each case.

As a reminder, the IC50 is the concentration that gives 50% inhibition.
